In patent publication US20260285850A1, “SUBSTITUTED OXAZOLIDINONES AND IMIDAZOLINONES AS HERBICIDES” (FMC CORPORATION, priority 2023, published 2026):

Key:
Type in all cases: in vivo
corn (Zea mays) [1] = experiment: Test A postemergence application, visual injury rating 0-100; details: 10 days
Procedure, shortened: (§1)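 Visual injury ratings (0, no effect; 100, complete control) were assigned relative to untreated plants 10 days after treatment. Test chemicals, formulated with a surfactant-containing non-phytotoxic solvent, were applied in loam-sand soil either as a directed soil spray before emergence or to emerged plants, and plants were kept in a greenhouse.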

[2] = tested on: barnyardgrass (Echinochloa crus-galli); experiment: as above; details: 10 days
Procedure, shortened: as §1

[3] = tested on: galium (catchweed bedstraw, Galium aparine); experiment: as above; details: 10 days
Procedure, shortened: as §1

[4] = tested on: ryegrass, Italian (italian ryegrass, Lolium multiflorum); experiment: as above; details: 10 days
Procedure, shortened: as §1

soybean (Glycine max) [5] = experiment: as above; details: 10 days
Procedure, shortened: as §1

[6] = tested on: palmer (palmer amaranth, palmer pigweed, Amaranthus palmeri); experiment: as above; details: 10 days
Procedure, shortened: as §1

[7] = tested on: wheat (Triticum aestivum); experiment: as above; details: 10 days
Procedure, shortened: as §1

[8] = tested on: oat, wild (wild oat, Avena fatua); experiment: as above; details: 10 days
Procedure, shortened: as §1

[9] = tested on: ragweed (common ragweed, Ambrosia artemisiifolia); experiment: as above; details: 10 days
Procedure, shortened: as §1

[10] = tested on: blackgrass (Alopecurus myosuroides); experiment: as above; details: 10 days
Procedure, shortened: as §1

[11] = tested on: horseweed (Erigeron canadensis); experiment: as above; details: Postemergence, 125 g ai/ha, 10 days; 0 is no effect, 100 is complete control
Procedure, shortened: as §1

[12] = tested on: green foxtail (Setaria viridis); experiment: as above; details: 10 days
Procedure, shortened: as §1

kochia (Bassia scoparia) [13] = experiment: as above; details: 10 days
Procedure, shortened: as §1

corn (Zea mays) [14] = experiment: Test A preemergence soil spray, visual injury rating 0-100; details: 10 days, 0 = no effect, 100 = complete control
Procedure, shortened: as §1

[15] = tested on: barnyardgrass (Echinochloa crus-galli); experiment: as above; details: 10 days, 0 = no effect, 100 = complete control
Procedure, shortened: as §1

[16] = tested on: ryegrass, Italian (italian ryegrass, Lolium multiflorum); experiment: as above; details: 10 days, 0 = no effect, 100 = complete control
Procedure, shortened: as §1

soybean (Glycine max) [17] = experiment: as above; details: 10 days, 0 = no effect, 100 = complete control
Procedure, shortened: as §1

[18] = tested on: palmer (palmer amaranth, palmer pigweed, Amaranthus palmeri); experiment: as above; details: 10 days, 0 = no effect, 100 = complete control
Procedure, shortened: as §1

[19] = tested on: wheat (Triticum aestivum); experiment: as above; details: 10 days, 0 = no effect, 100 = complete control
Procedure, shortened: as §1

[20] = tested on: oat, wild (wild oat, Avena fatua); experiment: as above; details: 10 days, 0 = no effect, 100 = complete control
Procedure, shortened: as §1

[21] = tested on: ragweed (common ragweed, Ambrosia artemisiifolia); experiment: as above; details: 10 days, 0 = no effect, 100 = complete control
Procedure, shortened: as §1

[22] = tested on: blackgrass (Alopecurus myosuroides); experiment: as above; details: 10 days, 0 = no effect, 100 = complete control
Procedure, shortened: as §1

[23] = tested on: green foxtail (Setaria viridis); experiment: as above; details: 10 days, 0 = no effect, 100 = complete control
Procedure, shortened: as §1

kochia (Bassia scoparia) [24] = experiment: as above; details: 10 days, 0 = no effect, 100 = complete control
Procedure, shortened: as §1

rice (Oryza sativa) = experiment: Test B flooded paddy test, visual plant response rating 0-100; details: 250 g ai/ha, Flood, applied to paddy water, evaluated after 13 days
Procedure, shortened: (§2)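 2-leaf plants; flood 3 cm over soil; compound dosed into paddy water; depth kept constant; greenhouse 13 d; visual scoring vs controls. Dash = no result.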

[25] = tested on: ducksalad (Heteranthera limosa); experiment: as above; details: 250 g ai/ha, Flood, applied to paddy water, evaluated after 13 days
Procedure, shortened: as §2

[26] = tested on: sedge, umbrella (small-flower umbrella sedge, Cyperus difformis); experiment: as above; details: 250 g ai/ha, Flood, applied to paddy water, evaluated after 13 days
Procedure, shortened: as §2

[27] = tested on: barnyardgrass (Echinochloa crusgalli); experiment: as above; details: 250 g ai/ha, Flood, applied to paddy water, evaluated after 13 days
Procedure, shortened: as §2

[28] = 31 g ai/ha, postemergence, 0 = no effect, 100 = complete control
[29] = Postemergence, 125 g ai/ha, 0 is no effect, 100 is complete control

## CC(C)OC(=O)C1CCC(NC(=O)C2(C)CN(c3cc(F)cc(Cl)c3)C(=O)O2)C1 (stereo not drawn) [Compound 2]
Corn (Zea mays) [1]; [28]
  Corn plant response rating (0-100): 40
Corn (Zea mays) [1]; [29]
  Corn plant response rating (0 to 100 scale): 100
[2]; [28]
  Barnyardgrass plant response rating (0-100): 50
[2]; [29]
  Barnyardgrass plant response rating (0 to 100 scale): 100
[3]; [28]
  Galium plant response rating (0-100): 60
[3]; [29]
  Galium plant response rating (0 to 100 scale): 90
[4]; [28]
  Ryegrass, Italian plant response rating (0-100): 50
[4]; [29]
  Ryegrass, Italian plant response rating (0 to 100 scale): 90
Soybean (Glycine max) [5]; [28]
  Soybean plant response rating (0-100): 20
Soybean (Glycine max) [5]; [29]
  Soybean plant response rating (0 to 100 scale): 70
[6]; [28]
  Amaranth, Palmer plant response rating (0-100): 0
[6]; [29]
  Amaranth, Palmer / Pigweed, Palmer plant response rating (0 to 100 scale): 50
[7]; [28]
  Wheat plant response rating (0-100): 80
[7]; [29]
  Wheat plant response rating (0 to 100 scale): 90
[8]; [28]
  Oat, Wild plant response rating (0-100): 70
[8]; [29]
  Oat, Wild plant response rating (0 to 100 scale): 90
[9]; [28]
  Ragweed plant response rating (0-100): 20
[9]; [29]
  Ragweed plant response rating (0 to 100 scale): 50
[10]; [28]
  Blackgrass plant response rating (0-100): 60
[10]; [29]
  Blackgrass plant response rating (0 to 100 scale): 70
[11]
  Horseweed plant response rating (0 to 100 scale): 0
[12]; [28]
  Foxtail, Green plant response rating (0-100): 0
[12]; [29]
  Foxtail, Green plant response rating (0 to 100 scale): 90
Kochia (Bassia scoparia) [13]; [28]
  Kochia plant response rating (0-100): 0
Kochia (Bassia scoparia) [13]; [29]
  Kochia plant response rating (0 to 100 scale): 80
Corn (Zea mays) [14]; 31 g ai/ha
  Corn plant response rating (0-100): 20
Corn (Zea mays) [14]; 125 g ai/ha
  Corn plant response rating (0 to 100 scale): 70
[15]; 31 g ai/ha
  Barnyardgrass plant response rating (0-100): 10
[15]; 125 g ai/ha
  Barnyardgrass plant response rating (0 to 100 scale): 90
[16]; 31 g ai/ha
  Ryegrass, Italian plant response rating (0-100): 20
[16]; 125 g ai/ha
  Ryegrass, Italian plant response rating (0 to 100 scale): 80
Soybean (Glycine max) [17]; 31 g ai/ha
  Soybean plant response rating (0-100): 0
Soybean (Glycine max) [17]; 125 g ai/ha
  Soybean plant response rating (0 to 100 scale): 20
[18]; 31 g ai/ha
  Amaranth, Palmer plant response rating (0-100): 20
[18]; 125 g ai/ha
  Amaranth, Palmer plant response rating (0 to 100 scale): 80
[19]; 31 g ai/ha
  Wheat plant response rating (0-100): 50
[19]; 125 g ai/ha
  Wheat plant response rating (0 to 100 scale): 90
[20]; 31 g ai/ha
  Oat, Wild plant response rating (0-100): 0
[20]; 125 g ai/ha
  Oat, Wild plant response rating (0 to 100 scale): 70
[21]; 31 g ai/ha
  Ragweed plant response rating (0-100): 30
[21]; 125 g ai/ha
  Ragweed plant response rating (0 to 100 scale): 0
[22]; 31 g ai/ha
  Blackgrass plant response rating (0-100): 0
[22]; 125 g ai/ha
  Blackgrass plant response rating (0 to 100 scale): 50
[23]; 31 g ai/ha
  Foxtail, Green plant response rating (0-100): 0
[23]; 125 g ai/ha
  Foxtail, Green plant response rating (0 to 100 scale): 90
Kochia (Bassia scoparia) [24]; 31 g ai/ha
  Kochia plant response rating (0-100): 0
Kochia (Bassia scoparia) [24]; 125 g ai/ha
  Kochia plant response rating (0 to 100 scale): 70
Rice (Oryza sativa)
  Plant response rating, Rice (0 to 100 scale, 0 is no effect and 100 is complete control): 20
[25]
  Plant response rating, Ducksalad (0 to 100 scale, 0 is no effect and 100 is complete control): 65
[26]
  Plant response rating, Sedge, Umbrella (0 to 100 scale, 0 is no effect and 100 is complete control): 75
[27]
  Plant response rating, Barnyardgrass (0 to 100 scale, 0 is no effect and 100 is complete control): 95
